Common to all, as to format: cell-based
One assay deals with T1, CRBN (Homo sapiens, UniProt Q96SW2).
T1 construct: Cells stably expressing BRD4BD2-GFP with mCherry reporter were seeded; endogenous in cells; host or cells: Flip-In 293 cells stably expressing BRD4BD2-eGFP-P2A-mCherry
Nature of the assay: Cellular CRBN binding assay (BRD4BD2-GFP/mCherry reporter, competition with 100 nM dBET6). As to conditions: GFP/RFP ratio, Flip-In 293 cells expressing BRD4BD2-GFP, 5 hours. How it is done:
(§1) BRD4BD2 were subcloned into mammalian pcDNA5/FRT Vector (Ampicillin and Hygromycin B resistant) modified to contain MCS-eGFP-P2A-mCherry. Stable cell lines expressing eGFP-protein fusion and mCherry reporter were generated using the Flip-In™ 293 system. Plasmid (0.3 μg) and pOG44 (4.7 μg) DNA were preincubated in 100 of Opti-MEM I (Gibco™, Life Technologies) media containing 0.05 mg/ml Lipofectamine® 2000 (Invitrogen) for 20 minutes and added to Flip-In™ 293 cells containing 1.9 ml of DMEM media (Gibco™, Life Technologies) per well in a 6-well plate format (Falcon, 353046). Cells were propagated after 48 hours and transferred into a 10 cm^2 plate (Corning, 430165) in DMEM media containing 50 μg/ml of Hygromycin B (REF 10687010, Invitrogen) as a selection marker. Following a 2-3 passage cycle, FACS (FACSAria II, BD) was used to enrich for cells expressing eGFP and mCherry.
Cells stably expressing BRD4BD2-GFP with mCherry reporter were seeded at 30-50% confluency in 384 well plates (3764, Corning) with 50 μl FluoroBrite DMEM media (Gibco™, A18967) containing 10% FBS per well a day before compound treatment. Compounds and 100 nM dBET6 were dispensed using D300e Digital Dispenser (HP) normalized to 0.5% DMSO and incubated with cells for 5 hours. The assay plate was imaged immediately using Acumen eX3/HCl (TTPLabtech) High Content Imager with 488 nm and 561 nm lasers in […] grid per well format. The resulting images were analyzed using CellProfiler (Carpenter, et al., Genome Biol. 7:R100 PIMD 17076895 (2006)).

Another assay concerns the target T2, PBRM1 (Homo sapiens, UniProt Q86U86).
T2 construct: near complete degradation of endogenous PBRM1; endogenous in cells; host or cells: Kelly cells
Nature of the assay: Kelly cell PBRM1 Western blot for cellular degradation of proteins. To be noted: Kelly cells; relative to GAPDH, compared to DMSO. The method, then:
Kelly cells were treated with compounds as indicated and incubated for 6 or 24 hours. Samples were run on 4-20% or Any kD™ SDS-PAGE Gels (Bio-Rad), and transferred to PVDF membranes using the iBlot 2.0 dry blotting system (Thermo-Fisher Scientific). Membranes were blocked with LI-COR blocking solution (LI-COR), and incubated with primary antibodies overnight, followed by three washes in LI-COR blocking solution and incubation with secondary antibodies for one hour in the dark. After three final washes, the membranes were imaged on a LI-COR fluorescent imaging station (LI-COR). Antibodies used: anti-PBRM1 at 1:500 dilution (Cell Signaling, clone D3F70), anti-GAPDH at 1:10,000 dilution (G8795, Sigma), IRDye 680 Donkey anti-mouse at 1:10,000 dilution (926-68072, LI-COR).

For assay [1], the target named is T3, PBRM1 PB5 (Homo sapiens, UniProt Q86U86). Nature of the assay: PBRM1 PB5 GFP/RFP degradation assay (flow cytometry reporter assay). To be noted: 5 hours, FIG. 3A-3F. The method, then: as §1, with “PBRM1 PB5 was” for “BRD4BD2 were”, “[…])” for “μg)”, “Lipofectamine” for “Lipofectamine®”
Cells were seeded at 30-50% confluency in either 24, 48 or 96 well plates (3524, 3548, 3596, respectively, Costar) a day before compound treatment. Titrated compounds were incubated with cells for 5 hours following trypsinization and resuspension in DMEM media, transferred into 96-well plates (353910, Falcon) and analyzed by flow cytometer (guava easyCyte HT, Millipore). Signal from minimal 3000 events per well was acquired and the eGFP and mCherry florescence were monitored. Data was analyzed using FlowJo® (FlowJo, LLC). Forward and side scatter outliers, frequently associated with cell debris, were removed leaving >90% of total cells, followed by removal of eGFP and mCherry signal outliers, leaving 88-90% of total cells creating the set used for quantification. The eGFP protein abundance relative to mCherry was then quantified as a ten-fold amplified ratio for each individual cell using the formula: 10×eGFP/mCherry. The median of the ratio was then calculated per set, normalized to the median of the DMSO ratio.
The assay described in Example 16 was repeated, using compounds 3-8 and the control (“negative compound” (G)).
A general note: A flow cytometer gives signals particle by particle.

In assay [2] the target is T3, PBRM1 PB5. Nature of the assay: Imaging based PBRM1 PB5 GFP/RFP degradation assay. As to conditions: after 3 h of incubation; for degradation of PBRM1 PB5: FIG. 3H-3J. How it is done: Cells stably expressing PBRM1 PB5 in Example 16, were seeded at 30-50% confluency in 384 well plates (3764, Corning) with 50 μL FluoroBrite DMEM media (Gibco, A18967) containing 10% FBS per well a day before compound treatment. […] The assay plate was imaged immediately using Acumen eX3/HCl (TTPLabtech) High Content Imager with 488 nm and 561 nm lasers in […] grid per well format. The resulting images were analyzed using CellProfiler (Carpenter et al., Genome Biol. 7R100 PIMD 17076895 (2006)). A series of image analysis steps (‘image analysis pipeline’) was constructed.
The CellProfiler pipeline steps were as follows. First, the red and green channels were aligned and cropped to target the middle of each well (to avoid analysis of heavily clumped cells at the edges), and a background illumination function was calculated for both red and green channels of each well individually and subtracted to correct for illumination variations across the 384-well plate from various sources of error. An additional step was then applied to the green channel to suppress the analysis of large auto fluorescent artifacts and enhance the analysis of cell specific fluorescence by way of selecting for objects under a given size, 30 A.U., and with a given shape, speckles. Cells that were mCherry-positive were then identified in the red channel filtering for objects between 8-60 pixels in diameter and using intensity to distinguish between clumped objects. The green channel was then segmented into GFP positive and negative areas and objects were labeled as GFP positive if at least 40% of it overlapped with a GFP positive area. The fraction of GFP-positive cells/mCherry-positive cells (GFP/mCherry ratio) in each well was then calculated, and the green and red images were rescaled for visualization. The GFP/mCherry ratio was normalized to DMSO visualized in GraphPad Prism 7.

Broadly, the IC50 is the midpoint of a concentration-inhibition curve. `Nc1nnc(-c2ccccc2O)cc1N1CCN(C(=O)CCOCCNc2cccc3c2CN(C2CCC(=O)NC2=O)C3=O)CC1` (centres unmarked) [Compound 1, 3-(4-((2-(3-(4-(3-amino-6-(2-hydroxyphenyl)pyridazin-4-yl)piperazin-1-yl)-3-oxopropoxy)ethyl)amino)-1-oxoisoindolin-2-yl)piperidine-2,6-dione]: the concentration for half-maximal inhibition (IC50) on CRBN came to 30500 nM. Besides, the “degradation of PBRM1 (Western blot, FIG. 4)” value on PBRM1 is “degradation of PBRM1”. Take `Nc1nnc(-c2ccccc2O)cc1N1CCN(C(=O)CCOCCOCCNc2cccc3c2CN(C2CCC(=O)NC2=O)C3=O)CC1` (centres unmarked) [Compound 2, 3-(4-((2-(2-(3-(4-(3-amino-6-(2-hydroxyphenyl)pyridazin-4-yl)piperazin-1-yl)-3-oxopropoxy)ethoxy)ethyl)amino)-1-oxoisoindolin-2-yl)piperidine-2,6-dione]: the IC50 on CRBN came out at 20900 nM.

By DC50 is commonly meant the concentration at which degradation of the target reaches its halfway point. With `Nc1nnc(-c2ccccc2O)cc1N1CCN(C(=O)CCCCCCCCOc2cccc3c2C(=O)N(C2CCC(=O)NC2=O)C3=O)CC1` (centres unmarked) [Compound 3, 4-((9-(4-(3-amino-6-(2-hydroxyphenyl)pyridazin-4-yl)piperazin-1-yl)-9-oxononyl)oxy)-2-(2,6-dioxopiperidin-3-yl)isoindoline-1,3-dione], the IC50 on CRBN was determined as 162 nM. The DC50 on PBRM1 PB5 [1] was determined as 2.86 nM. For the compound `Nc1nnc(-c2ccccc2O)cc1N1CCN(C(=O)COc2cccc3c2C(=O)N(C2CCC(=O)NC2=O)C3=O)CC1` (centres unmarked) [Compound 4, 4-(2-(4-(3-amino-6-(2-hydroxyphenyl)pyridazin-4-yl)piperazin-1-yl)-2-oxoethoxy)-2-(2,6-dioxopiperidin-3-yl)isoindoline-1,3-dione], half-maximal degradation on PBRM1 PB5 [1] (DC50) was put at 21.8 nM. On the same count and under the same terms, as for `Nc1nnc(-c2ccccc2O)cc1N1CCN(C(=O)CCCCCCCCCCOc2cccc3c2C(=O)N(C2CCC(=O)NC2=O)C3=O)CC1` (centres unmarked) [Compound 5, 4-((11-(4-(3-amino-6-(2-hydroxyphenyl)pyridazin-4-yl)piperazin-1-yl)-11-oxoundecyl)oxy)-2-(2,6-dioxopiperidin-3-yl)isoindoline-1,3-dione], the figure is 3.64 nM; as for `Nc1nnc(-c2ccccc2O)cc1N1CCN(C(=O)CCCCCCCOc2cccc3c2C(=O)N(C2CCC(=O)NC2=O)C3=O)CC1` (centres unmarked) [Compound 6, 4-((8-(4-(3-amino-6-(2-hydroxyphenyl)pyridazin-4-yl)piperazin-1-yl)-8-oxooctyl)oxy)-2-(2,6-dioxopiperidin-3-yl)isoindoline-1,3-dione], 6.42 nM; as for `Nc1nnc(-c2ccccc2O)cc1N1CCN(C(=O)CCCCCCOc2cccc3c2C(=O)N(C2CCC(=O)NC2=O)C3=O)CC1` (centres unmarked) [Compound 7, 4-((7-(4-(3-amino-6-(2-hydroxyphenyl)pyridazin-4-yl)piperazin-1-yl)-7-oxoheptyl)oxy)-2-(2,6-dioxopiperidin-3-yl)isoindoline-1,3-dione], 6.35 nM. Compound `Nc1nnc(-c2ccccc2O)cc1N1CCN(C(=O)CCCCCCCCCOc2cccc3c2C(=O)N(C2CCC(=O)NC2=O)C3=O)CC1` (centres unmarked) [Compound 8, 4-((10-(4-(3-amino-6-(2-hydroxyphenyl)pyridazin-4-yl)piperazin-1-yl)-10-oxodecyl)oxy)-2-(2,6-dioxopiperidin-3-yl)isoindoline-1,3-dione] showed a DC50 on PBRM1 PB5 [1] of 3.9 nM. As for `Cc1ncsc1-c1ccc([C@H](C)NC(=O)[C@@H]2C[C@@H](O)CN2C(=O)[C@@H](NC(=O)CCCCCCCCN2CCN(c3cc(-c4ccccc4O)nnc3N)CC2)C(C)(C)C)cc1` [Compound 11, (2S,4R)-1-((S)-2-(9-(4-(3-amino-6-(2-hydroxyphenyl)pyridazin-4-yl)piperazin-1-yl)nonanamido)-3,3-dimethylbutanoyl)-4-hydroxy-N—((S)-1-(4-(4-methylthiazol-5-yl)phenyl)ethyl)pyrrolidine-2-carboxamide], the “degradation of PBRM1 PB5” value at PBRM1 PB5 [2] is reported as “less effective”. As for `Cc1ncsc1-c1ccc([C@H](C)NC(=O)[C@@H]2C[C@@H](O)CN2C(=O)[C@@H](NC(=O)CCCCCCCC(=O)N2CCN(c3cc(-c4ccccc4O)nnc3N)CC2)C(C)(C)C)cc1` [Compound 12, (2S,4R)-1-((S)-2-(9-(4-(3-Amino-6-(2-hydroxyphenyl)pyridazin-4-yl)piperazin-1-yl)-9-oxononanamido)-3,3-dimethylbutanoyl)-4-hydroxy-N—((S)-1-(4-(4-methylthiazol-5-yl)phenyl)ethyl)pyrrolidine-2-carboxamide], at PBRM1 PB5 [2], the “degradation of PBRM1 PB5” value is recorded as “potent degradation”. On to `Nc1nnc(-c2ccccc2O)cc1N1CCN(CCCCCCNC(=O)COc2cccc3c2C(=O)N(C2CCC(=O)NC2=O)C3=O)CC1` (centres unmarked) [Compound 13, N-(6-(4-(3-amino-6-(2-hydroxyphenyl)pyridazin-4-yl)piperazin-1-yl)hexyl)-2-((2-(2,6-dioxopiperidin-3-yl)-1,3-dioxoisoindolin-4-yl)oxy)acetamide], for which, on PBRM1 PB5 [2], the “degradation of PBRM1 PB5” value was “potent degradation”. On PBRM1 PB5 [2] (high compound concentration), the hook effect entry was “hook effect”.

These data come from patent US11771697B2, “Small molecule degraders of polybromo-1 (PBRM1)” (DANA-FARBER CANCER INSTITUTE, INC., priority 2018, dated 2023).
